Where two headings read alike, the source gives them in different places.
Key:
[1] = system: influenza A virus (A/PR/8/34); assay: microbe, parasite or virus in culture; assay type: cell-based
[2] = system: influenza A virus (A/PR/8/34); assay: MDCK cytopathic effect (CPE) cell protection assay, ATP detection; assay type: cell-based
[3] = Influenza A virus, PR/8, Table 1, mean all, class symbol, read-out: bDNA EC99
[4] = Influenza A virus, PR/8, Table 1, viral RNA 50% of control wells, mean all, class symbol, read-out: bDNA EC50
[5] = Influenza A virus, PR/8, MDCK, 72 h, Table 1, MDCK cells, A/PR/8/34, 72 hours, 50% cell protection, mean all, class symbol, read-out: MDCK IC50
[6] = Table 1, mean all, class symbol
[7] = Table 1, viral RNA 50% of control wells, mean all, class symbol, read-out: bDNA EC50
[8] = Table 1, MDCK cells, A/PR/8/34, 72 hours, 50% cell protection, mean all, class symbol, read-out: MDCK IC50

Compound	EC99 [1, 3]	EC50 [1, 4]	IC50 [2, 5]	other results
O=C(O)CC(Nc1nc(-c2c[nH]c3ncc(F)cc23)ncc1F)C12CCC(CC1)C2 (racemic) [Compound 95, (+/−)-3-(Bicyclo[2.2.1]heptan-1-yl)-3-(5-fluoro-2-(5-fluoro-1H-pyrrolo[2,3-b]pyridin-3-yl)pyrimidin-4-ylamino)propanoic acid]	0.3 to 3.3 µM	< 300 nM	< 300 nM	
CC(C)(C)C(Nc1nc(-c2c[nH]c3ncc(F)cc23)ncc1F)C1CC1C(=O)O (single isomer, unassigned) [Compound 51, 2-(1-((5-fluoro-2-(5-fluoro-1H-pyrrolo[2,3-b]pyridin-3-yl)pyrimidin-4-yl)amino)-2,2-dimethylpropyl)cyclopropanecarboxylic acid]		< 300 nM	< 300 nM	bDNA EC99 (uM) [1, 6]: C (EC99 (mean all)>3.3 μM)
CC(C)(C)C(Nc1nc(-c2c[nH]c3ncc(F)cc23)ncc1F)C1CC1C(=O)O (single isomer, unassigned) [Compound 52, 2-(1-((5-fluoro-2-(5-fluoro-1H-pyrrolo[2,3-b]pyridin-3-yl)pyrimidin-4-yl)amino)-2,2-dimethylpropyl)cyclopropanecarboxylic acid]				bDNA EC99 (uM) [1, 6]: B (0.3 μM≤EC99 (mean all)≤3.3 μM); EC50 [1, 7]: < 300 nM; IC50 [2, 8]: < 300 nM
CC(C)(C)[C@H](CC(=O)O)Nc1nc(-c2c[nH]c3ncc(Cl)cc23)ncc1F [Compound 3, (S)-3-((2-(5-chloro-1H-pyrrolo[2,3-b]pyridin-3-yl)-5-fluoropyrimidin-4-yl)amino)-4,4-dimethylpentanoic acid]	> 3.3 µM	300 to 3300 nM	300 to 3300 nM	
CC(C)(C)[C@H](CC(=O)O)Nc1nc(-c2c[nH]c3ncc(F)cc23)ncc1F [Compound 4, (S)-3-((5-fluoro-2-(5-fluoro-1H-pyrrolo[2,3-b]pyridin-3-yl)pyrimidin-4-yl)amino)-4,4-dimethylpentanoic acid]	> 3.3 µM	> 3300 nM	> 3300 nM	
CC(C)(C)[C@@H](CC(=O)O)Nc1nc(-c2n[nH]c3ncc(F)cc23)ncc1F [Compound 5, (R)-3-((5-fluoro-2-(5-fluoro-1H-pyrazolo[3,4-b]pyridin-3-yl)pyrimidin-4-yl)amino)-4,4-dimethylpentanoic acid]	< 0.3 µM	< 300 nM	< 300 nM	
CC(C)(C)[C@@H](CC(=O)O)Nc1nc(-c2n[nH]c3ncc(F)cc23)c(F)cc1F [Compound 6, (R)-3-((3,5-difluoro-6-(5-fluoro-1H-pyrazolo[3,4-b]pyridin-3-yl)pyridin-2-yl)amino)-4,4-dimethylpentanoic acid]	< 0.3 µM	< 300 nM	< 300 nM	EC50 ([1]; Influenza A virus, PR/8, exemplary data, bDNA, read-out: EC50): 15 nM; EC99 ([1]; exemplary data, bDNA): 0.082 µM; IC50 ([2]; Influenza A virus, PR/8, MDCK, exemplary data, MDCK cell protection, read-out: IC50): 4 nM
CC(C)(C)[C@@H](CC(=O)O)Nc1nc(-c2c[nH]c3ncc(F)cc23)c(C#N)cc1F [Compound 7, (R)-3-(5-cyano-3-fluoro-6-(5-fluoro-1H-pyrrolo[2,3-b]pyridin-3-yl)pyridin-2-ylamino)-4,4-dimethylpentanoic acid]	< 0.3 µM	< 300 nM	< 300 nM	
CC1([C@@H](CC(=O)O)Nc2nc(-c3c[nH]c4ncc(F)cc34)c(C#N)cc2F)CCCC1 [Compound 8, (R)-3-(5-cyano-3-fluoro-6-(5-fluoro-1H-pyrrolo[2,3-b]pyridin-3-yl)pyridin-2-ylamino)-3-(1-methylcyclopentyl)propanoic acid]				EC50 [1, 7]: < 300 nM; IC50 [2, 8]: < 300 nM
CC(C)(C)[C@@H](CS(=O)(=O)O)Nc1nc(-c2c[nH]c3ncc(Cl)cc23)ncc1F [Compound 10, (S)-2-((2-(5-chloro-1H-pyrrolo[2,3-b]pyridin-3-yl)-5-fluoropyrimidin-4-yl)amino)-3,3-dimethylbutane-1-sulfonic acid]	< 0.3 µM	< 300 nM	< 300 nM	
CC(C)(C)[C@@H](CS(=O)(=O)O)Nc1nc(-c2c[nH]c3ncc(F)cc23)ncc1F [Compound 11, (S)-2-(5-fluoro-2-(5-fluoro-1H-pyrrolo[2,3-b]pyridin-3-yl)pyrimidin-4-ylamino)-3,3-dimethylbutane-1-sulfonic acid]	< 0.3 µM	< 300 nM	< 300 nM	
CC1(C(CC(=O)O)Nc2nc(-c3c[nH]c4ncc(F)cc34)c(C#N)cc2F)CCCC1 (centres unmarked) [Compound 13]	< 0.3 µM	< 300 nM	< 300 nM	
CC1([C@@H](CC(=O)O)Nc2nc(-c3c[nH]c4ncc(F)cc34)ncc2F)CCCC1 [Compound 14]	< 0.3 µM	< 300 nM	< 300 nM	
CC1([C@H](CC(=O)O)Nc2nc(-c3c[nH]c4ncc(F)cc34)ncc2F)CCCC1 [Compound 15]	> 3.3 µM	300 to 3300 nM	300 to 3300 nM	
CCC(C)(C)C(CC(=O)O)Nc1nc(-c2c[nH]c3ncc(F)cc23)ncc1F (centres unmarked) [Compound 16, 3-((5-fluoro-2-(5-fluoro-1H-pyrrolo[2,3-b]pyridin-3-yl)pyrimidin-4-yl)amino)-4,4-dimethylhexanoic acid]		< 300 nM	< 300 nM	bDNA EC99 (uM) [1, 6]: A (EC99 (mean all)<0.3 μM)
CCC(C)(C)C(CC(=O)O)Nc1nc(-c2c[nH]c3ncc(F)cc23)ncc1F (centres unmarked) [Compound 17, 3-((5-fluoro-2-(5-fluoro-1H-pyrrolo[2,3-b]pyridin-3-yl)pyrimidin-4-yl)amino)-4,4-dimethylhexanoic acid]				bDNA EC99 (uM) [1, 6]: C (EC99 (mean all)>3.3 μM); EC50 [1, 7]: 300 to 3300 nM; IC50 [2, 8]: 300 to 3300 nM
CCC(C)(C)C(CC(=O)O)Nc1nc(-c2c[nH]c3ncc(F)cc23)c(C#N)cc1F (centres unmarked) [Compound 18, 3-[[5-cyano-3-fluoro-6-(5-fluoro-1H-pyrrolo[2,3-b]pyridin-3-yl)-2-pyridyl]amino]-4,4-dimethyl-hexanoic acid]	< 0.3 µM	< 300 nM	< 300 nM	
CNS(=O)(=O)C[C@@H](Nc1nc(-c2c[nH]c3ncc(F)cc23)ncc1F)C(C)(C)C [Compound 19, (S)-2-(5-fluoro-2-(5-fluoro-1H-pyrrolo[2,3-b]pyridin-3-yl)pyrimidin-4ylamino)-N,3,3-trimethylbutane-1-sulfonamide]	< 0.3 µM	< 300 nM	< 300 nM	
CC(C)(C)[C@@H](CCC(=O)O)Nc1nc(-c2c[nH]c3ncc(F)cc23)ncc1F [Compound 20, (R)-4-((5-fluoro-2-(5-fluoro-1H-pyrrolo[2,3-b]pyridin-3-yl)pyrimidin-4-yl)amino)-5,5-dimethylhexanoic acid]	< 0.3 µM	< 300 nM	< 300 nM	
CC(C)(C)[C@@H](CS(=O)(=O)NC1CC1)Nc1nc(-c2c[nH]c3ncc(F)cc23)ncc1F [Compound 21, (S)—N-Cyclopropyl-2-(5-fluoro-2-(5-fluoro-1H-pyrrolo[2,3-b]pyridin-3-yl)pyrimidin-4-ylamino)-3,3-dimethylbutane-1-sulfonamide]	< 0.3 µM	< 300 nM	< 300 nM	
CC(C)(C)[C@@H](CS(N)(=O)=O)Nc1nc(-c2c[nH]c3ncc(F)cc23)ncc1F [Compound 22, (S)-2-(5-fluoro-2-(5-fluoro-1H-pyrrolo[2,3-b]pyridin-3-yl)pyrimidin-4-ylamino)-3,3-dimethylbutane-1-sulfonamide]	0.3 to 3.3 µM	< 300 nM	< 300 nM	
CCOC(=O)CC[C@@H](Nc1nc(-c2c[nH]c3ncc(F)cc23)ncc1F)C(C)(C)C [Compound 23, (R)-ethyl 4-((5-fluoro-2-(5-fluoro-1H-pyrrolo[2,3-b]pyridin-3-yl)pyrimidin-4-yl)amino)-5,5-dimethylhexanoate]	> 3.3 µM	300 to 3300 nM	300 to 3300 nM	
CC(C)(C)[C@@H](CO)Nc1nc(-c2c[nH]c3ncc(F)cc23)c(C#N)cc1F [Compound 24, (S)-5-fluoro-2-(5-fluoro-1H-pyrrolo[2,3-b]pyridin-3-yl)-6-((1-hydroxy-3,3-dimethylbutan-2-yl)amino)nicotinonitrile]	< 0.3 µM	< 300 nM	< 300 nM	
CC(C)(C)[C@@H](CS(=O)(=O)O)Nc1nc(-c2c[nH]c3ncc(F)cc23)c(C#N)cc1F [Compound 25, (S)-2-(5-cyano-3-fluoro-6-(5-fluoro-1H-pyrrolo[2,3-b]pyridin-3-yl)pyridin-2-ylamino)-3,3-dimethylbutane-1-sulfonic acid]	< 0.3 µM	< 300 nM	< 300 nM	
CC(C)(C)[C@@H](CO)Nc1nc(-c2c[nH]c3ncc(F)cc23)ncc1F [Compound 32, (S)-2-(5-fluoro-2-(5-fluoro-1H-pyrrolo[2,3-b]pyridin-3-yl)pyrimidin-4-ylamino)-3,3-dimethylbutane-1-ol]	< 0.3 µM	< 300 nM	< 300 nM	
CCNS(=O)(=O)C[C@@H](Nc1nc(-c2c[nH]c3ncc(F)cc23)ncc1F)C(C)(C)C [Compound 33, (S)—N-Ethyl-2-(5-fluoro-2-(5-fluoro-1H-pyrrolo[2,3-b]pyridin-3-yl)pyrimidin-4-ylamino)-3,3-dimethylbutane-1-sulfonamide]	< 0.3 µM	< 300 nM	< 300 nM	
CCCNS(=O)(=O)C[C@@H](Nc1nc(-c2c[nH]c3ncc(F)cc23)ncc1F)C(C)(C)C [Compound 34, (S)-2-(5-Fluoro-2-(5-fluoro-1H-pyrrolo[2,3-b]pyridin-3-yl)pyrimidin-4-ylamino)-3,3-dimethyl-N-propylbutane-1-sulfonamide]	0.3 to 3.3 µM	< 300 nM	< 300 nM	
